Experimental data as given in US20230002372A1, “AZAINDOLE CARBOXAMIDE COMPOUNDS FOR THE TREATMENT OF MYCOBACTERIAL INFECTIONS” (THE GLOBAL ALLIANCE FOR TB DRUG DEVELOPMENT, INC., priority 2019, published 2023).
Converted amounts (≈) assume the structure as drawn.

System: M tb H37Rv
Assay: MIC determination against M tb H37Rv (green fluorescent protein reporter assay; MIC-MABA)
Format: cell-based, Mycobacterium tuberculosis
Conditions: 7H9 broth, 10 days exposure, MIC = lowest concentration inhibiting fluorescence by 90%; for MIC: Mycobacterium tuberculosis, H37RV, 240 h, read-out: M. TB H37Rv: MIC-MABA: MIC, M. tb H37Rv

SMILES | MIC | M. TB H37Rv: MIC-MABA: MIC (M. tb H37Rv)
Cc1nc2[nH]c(C(=O)N[C@@H]3CCC[Si](C)(C)CC3)cc2c(F)c1F (single isomer, unassigned) [MPL-282A] | 0.051 µg/mL (≈ 0.145 µM) | –
Cc1nc2[nH]c(C(=O)N[C@H]3CCC[Si](C)(C)CC3)cc2c(F)c1F (single isomer, unassigned) [MPL-282B] | 0.197 µg/mL (≈ 0.56 µM) | –
Cc1nc2[nH]c(C(=O)N[C@@H]3CC[Si](C)(C)C3)cc2c(F)c1F (single isomer, unassigned) [MPL-295A] | 0.22 µg/mL (≈ 0.68 µM) | –
Cc1nc2[nH]c(C(=O)N[C@H]3CCC[Si](C)(C)CC3)cc2c(F)c1Cl (single isomer, unassigned) [MPL-316B] | 0.25 µg/mL (≈ 0.679 µM) | –
Cc1cc(Cl)c2cc(C(=O)N[C@@H]3CC[Si](C)(C)C3)[nH]c2n1 (single isomer, unassigned) [MPL-401A] | 0.319 µg/mL (≈ 0.991 µM) | –
Cc1cc(Cl)c2cc(C(=O)N[C@H]3CC[Si](C)(C)C3)[nH]c2n1 (single isomer, unassigned) [MPL-401B] | 0.007 µg/mL (≈ 0.0217 µM) | –
O=C(NC1CCC2(CCC2)CC1)c1cc2c(Cl)ccnc2[nH]1 [MPL-001, 4-chloro-N-spiro[3.5]nonan-7-yl-1H-pyrrolo[2,3-b]pyridine-2-carboxamide] | 0.03 µg/mL (≈ 0.0944 µM) | –
O=C(NC1CCC2(CCC2)CC1)c1cc2c(F)ccnc2[nH]1 [MPL-002, 4-fluoro-N-spiro[3.5]nonan-7-yl-1H-pyrrolo[2,3-b]pyridine-2-carboxamide] | 0.056 µg/mL (≈ 0.186 µM) | –
CC1(C)CCC(NC(=O)c2cc3c(Cl)cncc3[nH]2)CC1 [MPL-003, 4-chloro-N-(4,4-dimethylcyclohexyl)-1H-pyrrolo[2,3-c]pyridine-2-carboxamide] | 0.01 µg/mL (≈ 0.0327 µM) | –
C[C@@H]1[C@@H](NC(=O)c2cc3c(Cl)cncc3[nH]2)C[C@H]2C[C@@H]1C2(C)C [MPL-006, 4-chloro-N-[(1S,2S,3S,5R)-2,6,6-trimethylnorpinan-3-yl]-1H-pyrrolo[2,3-c]Pyridine-2-carboxamide] | 0.3 µg/mL (≈ 0.904 µM) | –
CC1(C)CCC(NC(=O)c2cc3c(Br)ccnc3[nH]2)CC1 [MPL-007, 4-bromo-N-(4,4-dimethylcyclohexyl)-1H-pyrrolo[2,3-b]pyridine-2-carboxamide] | 0.12 µg/mL (≈ 0.343 µM) | –
C[C@@H]1[C@@H](NC(=O)c2cc3c(C#N)ccnc3[nH]2)C[C@H]2C[C@@H]1C2(C)C [MPL-013, 4-cyano-N-[(1S,2S,3S,5R)-2,6,6-trimethylnorpinan-3-yl]-1H-pyrrolo[2,3-b]pyridine-2-carboxamide] | 1.2 µg/mL (≈ 3.72 µM) | –
COc1ccnc2[nH]c(C(=O)N[C@H]3C[C@H]4C[C@@H]([C@@H]3C)C4(C)C)cc12 [MPL-014, 4-methoxy-N-[(1S,2S,3S,5R)-2,6,6-trimethylnorpinan-3-yl]-1H-pyrrolo[2,3-b]pyridine-2-carboxamide] | 5.4 µg/mL (≈ 16.5 µM) | –
C[C@@H]1[C@@H](NC(=O)c2cc3c(C(F)(F)F)ccnc3[nH]2)C[C@H]2C[C@@H]1C2(C)C [MPL-015, 4-(trifluoromethyl)-N-[(1S,2S,3S,5R)-2,6,6-trimethylnorpinan-3-yl]-1H-pyrrolo[2,3-b]pyridine-2-carboxamide] | 0.044 µg/mL (≈ 0.12 µM) | –
Cc1ccnc2[nH]c(C(=O)N[C@H]3C[C@H]4C[C@@H]([C@@H]3C)C4(C)C)cc12 [MPL-016, 4-methyl-N-[(1S,2S,3S,5R)-2,6,6-trimethylnorpinan-3-yl]-1H-pyrrolo[2,3-b]pyridine-2-carboxamide] | 0.38 µg/mL (≈ 1.22 µM) | –
CC1(C)CCC(NC(=O)c2cc3c(C4CC4)ccnc3[nH]2)CC1 [MPL-017, 4-cyclopropyl-N-(4,4-dimethylcyclohexyl)-1H-pyrrolo[2,3-b]pyridine-2-carboxamide] | 0.72 µg/mL (≈ 2.31 µM) | –
Cc1cc(C)c2cc(C(=O)NC3CCC(C)(C)CC3)[nH]c2n1 [MPL-019, N-(4,4-dimethylcyclohexyl)-4,6-dimethyl-1H-pyrrolo[2,3-b]pyridine-2-carboxamide] | 9 µg/mL (≈ 30.1 µM) | –
CNc1ccnc2[nH]c(C(=O)N[C@H]3C[C@H]4C[C@@H]([C@@H]3C)C4(C)C)cc12 [MPL-023, 4-(methylamino)-N-[(1S,2S,3S,5R)-2,6,6-trimethylnorpinan-3-yl]-1H-pyrrolo[2,3-b]pyridine-2-carboxamide] | 11 µg/mL (≈ 33.7 µM) | –
O=C(NC1CCCCCCC1)c1cc2c(F)ccnc2[nH]1 [MPL-027, N-cyclooctyl-4-fluoro-1H-pyrrolo[2,3-b]pyridine-2-carboxamide] | 0.61 µg/mL (≈ 2.11 µM) | –
Cc1ccnc2[nH]c(C(=O)NC3CCCCCCC3)cc12 [MPL-031, N-cyclooctyl-4-methyl-1H-pyrrolo[2,3-b]pyridine-2-carboxamide] | 0.25 µg/mL (≈ 0.876 µM) | –
O=C(NC1CCCCCCC1)c1cc2c(Cl)ccnc2[nH]1 [MPL-033, 4-chloro-N-cyclooctyl-1H-pyrrolo[2,3-b]pyridine-2-carboxamide] | 0.038 µg/mL (≈ 0.124 µM) | –
O=C(NC1CCCCCCC1)c1cc2c(Br)ccnc2[nH]1 [MPL-035, 4-bromo-N-cyclooctyl-1H-pyrrolo[2,3-b]pyridine-2-carboxamide] | 0.14 µg/mL (≈ 0.4 µM) | –

SMILES | MIC | M. TB H37Rv: MIC-MABA: MIC (M. tb H37Rv)
N#Cc1ccnc2[nH]c(C(=O)NC3CCCCCCC3)cc12 [MPL-036, 4-cyano-N-cyclooctyl-1H-pyrrolo[2,3-b]pyridine-2-carboxamide] | 0.08 µg/mL (≈ 0.27 µM) | –
O=C(NC1CCCCCCC1)c1cc2c(C(F)(F)F)ccnc2[nH]1 [MPL-037, N-cyclooctyl-4-(trifluoromethyl)-1H-pyrrolo[2,3-b]pyridine-2-carboxamide] | 0.014 µg/mL (≈ 0.0413 µM) | –
COc1ccnc2[nH]c(C(=O)NC3CCCCCCC3)cc12 [MPL-038, N-cyclooctyl-4-methoxy-1H-pyrrolo[2,3-b]pyridine-2-carboxamide] | 6.2 µg/mL (≈ 20.6 µM) | –
O=C(NC1CCCCCCC1)c1cc2c(C3CC3)ccnc2[nH]1 [MPL-039, N-cyclooctyl-4-cyclopropyl-1H-pyrrolo[2,3-b]pyridine-2-carboxamide] | 0.39 µg/mL (≈ 1.25 µM) | –
CNc1ccnc2[nH]c(C(=O)NC3CCCCCCC3)cc12 [MPL-040, N-cyclooctyl-4-(methylamino)-1H-pyrrolo[2,3-b]pyridine-2-carboxamide] | 6.2 µg/mL (≈ 20.6 µM) | –
Cc1cc(C)c2cc(C(=O)NC3CCCCCCC3)[nH]c2n1 [MPL-041, N-cyclooctyl-4,6-dimethyl-1H-pyrrolo[2,3-b]pyridine-2-carboxamide] | 8.5 µg/mL (≈ 28.4 µM) | –
Cc1cc(F)c2cc(C(=O)N[C@H]3C[C@H]4C[C@@H]([C@@H]3C)C4(C)C)[nH]c2n1 [MPL-043, 4-fluoro-6-methyl-N-[(1S,2S,3S,5R)-2,6,6-trimethylnorpinan-3-yl]-1H-pyrrolo[2,3-b]pyridine-2-carboxamide] | 0.14 µg/mL (≈ 0.425 µM) | 0.17 µg/mL
C[C@@H]1[C@@H](NC(=O)c2cc3c(F)c(F)cnc3[nH]2)C[C@H]2C[C@@H]1C2(C)C [MPL-062, 4,5-difluoro-N-[(1S,2S,3S,5R)-2,6,6-trimethylnorpinan-3-yl]-1H-pyrrolo[2,3-b]pyridine-2-carboxamide] | 0.19 µg/mL (≈ 0.57 µM) | –
CC1(C)CCC(NC(=O)c2cc3c(F)c(F)cnc3[nH]2)CC1 [MPL-063, N-(4,4-dimethylcyclohexyl)-4,5-difluoro-1H-pyrrolo[2,3-b]pyridine-2-carboxamide] | 0.14 µg/mL (≈ 0.456 µM) | –
C[C@@H]1[C@@H](NC(=O)c2cc3cc(Cl)c(F)nc3[nH]2)C[C@H]2C[C@@H]1C2(C)C [MPL-064, 5-chloro-6-fluoro-N-[(1S,2S,3S,5R)-2,6,6-trimethylnorpinan-3-yl]-1H-pyrrolo[2,3-b]pyridine-2-carboxamide] | 0.16 µg/mL (≈ 0.457 µM) | –
O=C(NC1CCCCCCC1)c1cc2cc(Cl)c(F)nc2[nH]1 [MPL-065a, 5-chloro-N-cyclooctyl-6-fluoro-1H-pyrrolo[2,3-b]pyridine-2-carboxamide] | 0.013 µg/mL (≈ 0.0401 µM) | –
Cc1nc2[nH]c(C(=O)N[C@H]3C[C@H]4C[C@@H]([C@@H]3C)C4(C)C)cc2c(F)c1F [MPL-066, 4,5-difluoro-6-methyl-N-[(1S,2S,3S,5R)-2,6,6-trimethylnorpinan-3-yl]-1H-pyrrolo[2,3-b]pyridine-2-carboxamide] | 0.012 µg/mL (≈ 0.0345 µM) | –
Cc1nc2[nH]c(C(=O)N[C@H]3C[C@H]4C[C@@H]([C@@H]3C)C4(C)C)cc2c(F)c1Cl [MPL-068, 5-chloro-4-fluoro-6-methyl-N-[(1S,2S,3S,5R)-2,6,6-trimethylnorpinan-3-yl]-1H-pyrrolo[2,3-b]pyridine-2-carboxamide] | 0.046 µg/mL (≈ 0.126 µM) | –
Cc1nc2[nH]c(C(=O)NC3CCC(C)(C)CC3)cc2c(F)c1Cl [MPL-069, 5-chloro-N-(4,4-dimethylcyclohexyl)-4-fluoro-6-methyl-1H-pyrrolo[2,3-b]pyridine-2-carboxamide] | 0.0099 µg/mL (≈ 0.0293 µM) | –
Cc1cc2cc(C(=O)N[C@H]3C[C@H]4C[C@@H]([C@@H]3C)C4(C)C)[nH]c2nc1C [MPL-070, 5,6-dimethyl-N-((1S,2S,3S,5R)-2,6,6-trimethylbicyclo[3.1.1]heptan-3-yl)-1H-pyrrolo[2,3-b]pyridine-2-carboxamide] | 0.49 µg/mL (≈ 1.51 µM) | –
Cc1cc2cc(C(=O)NC3CCCCCCC3)[nH]c2nc1C [MPL-071, N-cyclooctyl-5,6-dimethyl-1H-pyrrolo[2,3-b]pyridine-2-carboxamide] | 0.049 µg/mL (≈ 0.164 µM) | –
C[C@@H]1[C@@H](NC(=O)c2cc3c(F)cncc3[nH]2)C[C@H]2C[C@@H]1C2(C)C [MPL-092, 4-fluoro-N-[(1S,2S,3S,5R)-2,6,6-trimethylnorpinan-3-yl]-1H-pyrrolo[2,3-c]pyridine-2-carboxamide] | 1.2 µg/mL (≈ 3.8 µM) | –
O=C(NC1CCCCCCC1)c1cc2c(F)cncc2[nH]1 [MPL-093, N-cyclooctyl-4-fluoro-1H-pyrrolo[2,3-c]pyridine-2-carboxamide] | 1.1 µg/mL (≈ 3.8 µM) | –
CC1(C)CCC(NC(=O)c2cc3c(F)cncc3[nH]2)CC1 [MPL-094, N-(4,4-dimethylcyclohexyl)-4-fluoro-1H-pyrrolo[2,3-c]pyridine-2-carboxamide] | 0.049 µg/mL (≈ 0.169 µM) | –
C[C@@H]1[C@@H](NC(=O)c2cc3c(C#N)cncc3[nH]2)C[C@H]2C[C@@H]1C2(C)C [MPL-095, 4-cyano-N-[(1S,2S,3S,5R)-2,6,6-trimethylnorpinan-3-yl]-1H-pyrrolo[2,3-c]pyridine-2-carboxamide] | 1.5 µg/mL (≈ 4.65 µM) | –
N#Cc1cncc2[nH]c(C(=O)NC3CCCCCCC3)cc12 [MPL-096, 4-cyano-N-cyclooctyl-1H-pyrrolo[2,3-c]pyridine-2-carboxamide] | 0.47 µg/mL (≈ 1.59 µM) | –
CC1(C)CCC(NC(=O)c2cc3c(C#N)cncc3[nH]2)CC1 [MPL-097, 4-cyano-N-(4,4-dimethylcyclohexyl)-1H-pyrrolo[2,3-c]pyridine-2-carboxamide] | 0.16 µg/mL (≈ 0.54 µM) | –
